Measurements reported in PubChem BioAssay AID1960 (Broad Institute, 2009).
Records with an inconclusive call do not appear. The source made the active and inactive calls. The rule behind the calls is not given here.

Target: Zinc finger protein mex-5 (Caenorhabditis elegans) (UniProt Q9XUB2)
Experiment: potency of MEX-5 RNA-binding blockers – biochemical, fluorescence polarization, dose response (AID 1960)
Settings: MEX-5/FITC-TCR2 RNA fluorescence polarization, 1 h

Chain of Zinc finger protein mex-5 (Caenorhabditis elegans) (Q9XUB2 whole entry, looked up): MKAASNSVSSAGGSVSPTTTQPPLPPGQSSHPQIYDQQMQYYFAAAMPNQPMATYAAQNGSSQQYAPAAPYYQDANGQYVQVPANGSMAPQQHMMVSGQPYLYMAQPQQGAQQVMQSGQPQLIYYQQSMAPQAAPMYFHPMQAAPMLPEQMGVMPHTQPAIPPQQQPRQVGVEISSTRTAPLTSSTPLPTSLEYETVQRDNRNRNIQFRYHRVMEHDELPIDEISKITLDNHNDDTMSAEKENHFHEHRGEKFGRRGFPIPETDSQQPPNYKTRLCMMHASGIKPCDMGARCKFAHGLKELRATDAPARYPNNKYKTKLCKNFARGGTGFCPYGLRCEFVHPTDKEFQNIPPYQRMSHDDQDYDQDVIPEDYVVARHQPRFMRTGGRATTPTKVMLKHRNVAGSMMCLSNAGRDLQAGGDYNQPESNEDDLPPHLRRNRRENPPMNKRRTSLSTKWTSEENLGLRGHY

SMILES | EC50
CCN(CC)c1ccc(N=Cc2c(O)n(Cc3ccccc3)c(=O)[nH]c2=O)cc1 | > 30 µM (inactive)
CCC(C)/C=C(C)/C=C/C1=CC2=C(Cl)C(=O)C(C)(OC(C)=O)C(=O)C2=CO1 (centres undefined) | > 30 µM (inactive)
CC[C@H](C)/C=C(C)/C=C/C1=CC2=C(Cl)C(=O)[C@@](C)(OC(C)=O)C(=O)C2=CO1 | 17.8 µM
Cc1cc(/C=C2/C(=O)NC(=O)N(Cc3ccco3)C2=O)c(C)n1-c1ccc(C(=O)O)cc1 | > 30 µM (inactive)
